Here are results for 16 molecules from patent publication US20060194260A1, “Screening assays for cannabinoid-ligand-type modulators of gpr55” (priority 2003, published 2006).

In experiment [1] the target is T1, GPR55A (Homo sapiens, UniProt Q9Y2T6).
T1 construct: expressed in transfected cells; host or cells: HEK293s (transient, pIRESneo2 vector), membranes
Description: GTPγS binding assay on membranes of GPR55A-transfected HEK293s cells. Type of experiment: biochemical. The conditions noted are these: for EC50: NA = not active; for activation of GPR55A (GTPγS): concentration response. The procedure: Membranes with or without 20 μM ligand were assayed for their stimulatory or inhibitory activity on GTPγS binding. As a negative control, cell membranes were prepared from empty vector-transfected cells, and as a positive control, cell membranes were prepared from CB1 transfected cells.
Receptor activity was determined using a GTPγS binding assay as follows: 10 μg of membranes diluted in 200 μl of 100 mM NaCl, 5 mM MgCl2, 1 mM EDTA, 50 mM HEPES (pH 7.4), 1 mM DTT, 0.1% BSA and 100 μM GDP. To this was added the required concentration of test compound and […] ^35S-GTPγS in the presence or absence of an EC80 concentration of agonist (HU210). […] Samples were then transferred on to GF/B filters using a cell harvester and washed with wash buffer (50 mM Tris (pH 7.4), 5 mM MgCl2, 50 mM NaCl). Filters were then covered with scintilant and counted for the amount of ^35S-GTPγS retained by the filter. To determine the level of non-specific binding control reactions were performed in the presence of 10 μM GTPγS.
Functional activity of ligands either in the presence or absence of agonists was determined as follows: Non-specific binding was subtracted from all values determined. The effect of compounds at various concentrations was plotted according to the equation y=A+((B−A)/1+((C/x)?ˆD))) and EC50 or IC50 estimated. Results
To further define the agonist activities of cannabinoid ligands EC50 determinations were made. […] Refer to FIGS. 5A-5D for the results. […] Table 1. Activity of ligands at GPR55A (Antagonist data were generated in the presence of an EC80 concentration of HU210.)
In general terms: GTPγS resists hydrolysis and so accumulates on activated G proteins.

The next experiment concerns the target T2, GPR55 (Homo sapiens, UniProt Q9Y2T6).
T2 construct: FLAG; expressed in transfected cells; host or cells: HEK293S (transient), membranes
The experiment can be described thus: Radioligand binding, membranes of GPR55-transfected HEK293S cells. The conditions noted are these: for specific binding of radioligand: 1.6 nM radioligand. The procedure: (§1) To test whether GPR55 and/or GPR55Δ encoded a receptor that had the potential to perform as a cannabinoid receptor we transiently transfected cDNAs encoding FLAG-tagged forms of the receptors into HEK293S cells using lipofectamine. The cells were harvested 48 hours later and membranes prepared.
(§2) Membrane preparations were prepared by re-suspending receptor expressing cells in ice cold TE buffer (10 mM Tris-HCL 0.1 mM EDTA pH7.5) and leaving on ice for 5 minutes before pelleting the insoluble material by centrifugation at 1000 g. This process was repeated twice before re-suspending the pellet in an appropriate volume of TE and storing at −80° C.
(§3) Test compounds were added followed by 1.6 nM radioligand (3H—SR-141716A, ^3H-CP55940 or ^3H-WIN-55, 212-2) to an assay mixture containing membranes (10 μg protein) in 5.0 mM Tris, 5.0 mM MgCl2×6H2O (pH 7.4) supplemented with 0.05% BSA. The reaction was allowed to proceed at 30° C. for 90 min and then terminated by rapid filtration using GF/B filters (pre-soaked in 0.05% PEI) and washed with 50 mM Tris (pH 7.4), MgCl2×6H2O. Filters were then covered with scintillant and counted for the amount of radioligand retained. Non-specific binding was determined in the presence of 200 nM SR-141716A, CP55940 or WIN-55, 212-2.

The target in experiment [2] is T1, GPR55A. The experiment can be described thus: Radioligand binding, membranes of GPR55A-transfected HEK293S cells. The conditions noted are these: for specific binding of radioligand: 1.6 nM radioligand. The procedure: as §1, §2, §3
Experiment [3] can be described thus: Radioligand binding, membranes of vector-transfected cells (negative control). The conditions noted are these: vector-transfected cell membranes. On the procedure: as §3
The mark [4] stands for this setting: GTPγS binding, GPR55A membranes.

T1 sequence (Q9Y2T6 whole entry): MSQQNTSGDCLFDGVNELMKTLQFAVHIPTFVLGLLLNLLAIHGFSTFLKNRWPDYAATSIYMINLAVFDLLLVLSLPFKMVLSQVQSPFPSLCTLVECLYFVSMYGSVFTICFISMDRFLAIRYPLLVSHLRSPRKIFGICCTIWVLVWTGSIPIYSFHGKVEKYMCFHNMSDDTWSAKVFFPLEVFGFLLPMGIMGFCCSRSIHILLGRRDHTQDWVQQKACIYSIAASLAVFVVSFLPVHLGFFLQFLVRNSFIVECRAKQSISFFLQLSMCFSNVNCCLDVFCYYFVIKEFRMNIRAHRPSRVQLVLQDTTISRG
T2 sequence (Q9Y2T6 whole entry L132S/R133G/S134P/R136G/K137R/I138S/F139L/I141S/C142A): as the sequence (Q9Y2T6 whole entry) above, with L132S, R133G, S134P, R136G, K137R, I138S, F139L, I141S, C142A counted along it

For orientation: EC50 means the concentration that produces a half-maximal response. A high value points to a need for much substance. On GPR55A [1] (setting [4]), `CCCCC/C=C\C/C=C\C/C=C\C/C=C\CCCC(=O)OC(CO)CO` [2-AG, 2-aracodonylglycerol] yielded an EC50 of 3.5 ± 2.4 nM. The “activation of GPR55A (GTPγS)” value at GPR55A [1] is reported as “concentration-dependent activation”. As to `C=C(C)[C@@H]1CCC(C)=C[C@H]1c1c(O)cc(O)cc1CCCCC` [Abnormal cannabidiol], the EC50 on GPR55A [1] (setting [4]) was 2780 ± 98 nM. On to `CCCCC/C=C\C/C=C\C/C=C\C/C=C\CCCC(=O)NCCO` [Anandamide], for which, on GPR55A [1] (setting [4]), the midpoint of the response, the EC50, lay at 18.4 ± 4.1 nM. For the same molecule, on GPR55A [1], the “activation of GPR55A (GTPγS)” value is given as “concentration-dependent activation”.

With `CCCCCCC(C)(C)c1ccc([C@@H]2C[C@H](O)CC[C@H]2CCCO)c(O)c1` [CP55940], the “concentration dependent activity after pertussis toxin or cholera toxin treatment” value at GPR55A [1] (GPR55a in HEK293s membranes, treated with either toxin vs untreated) is on record as “remains unaltered”. Besides, a half-maximal response at GPR55A [1] (setting [4]) (EC50) required 7.1 ± 1.3 nM. For orientation: IC50 means the concentration that inhibits the measured activity by half. On to `C=C(C)[C@@H]1CCC(C)=C[C@H]1c1c(O)cc(CCCCC)cc1O` [Cannabidiol], for which, at GPR55A [1] (GTPγS binding, GPR55A membranes, antagonist data in the presence of an EC80 concentration of HU210, read-out: IC50 measurement), the IC50 was 354 ± 63 nM.

Regarding `CCCCCCC(C)(C)c1cc(O)c2c(c1)OC(C)(C)[C@@H]1CC=C(CO)C[C@@H]21` [Hu210], the EC50 on GPR55A [1] (setting [4]) is 33 ± 12 nM.

On GPR55A [1] (setting [4]), `CCCn1c(C)c(C(=O)c2cccc3ccccc23)c2ccccc21` [JWH-015] had an EC50 of 4.75 ± 0.25 nM. The molecule `CCCCC/C=C\C/C=C\C/C=C\C/C=C\CCCCOC(CO)CO` [Noladin Ether] came in with a concentration for a half-maximal effect (EC50) at GPR55A [1] (setting [4]) of 11.5 ± 0.5 nM. For the same molecule, the “activation of GPR55A (GTPγS)” value on GPR55A [1] is “concentration-dependent activation”. The molecule `CCCCCCCC/C=C\CCCCCCCC(=O)NCCO` [Oleylethanolamide] registered an EC50 at GPR55A [1] (setting [4]) of 424 ± 203 nM.

At GPR55A [1] (setting [4]), `CCCCCCCCCCCCCCCC(=O)NCCO` [Palmitoylethanolamide] displayed an EC50 of 3.2 ± 1.3 nM. The “activation of GPR55A (GTPγS)” value on GPR55A [1] is reported as “concentration-dependent activation”.

As for `Cc1c(C(=O)NN2CCCCC2)nn(-c2ccc(Cl)cc2Cl)c1-c1ccc(Cl)cc1` [SR141716], the “displacement of [^3H]-SR141716 (competition-binding curve)” value on GPR55 and on GPR55A [2] was “nanomolar affinity” in each case. In addition, the “specific binding, [^3H]-SR141716 competition” value in experiment [3] is “no specific binding”.

`CCCCC/C=C\C/C=C\C/C=C\C/C=C\CCCC(=O)OCCN` [Virodhamine] had an EC50 on GPR55A [1] (setting [4]) of 10.4 ± 1.4 nM. With `CCCCCCC(C)(C)c1ccc([C@@H]2C[C@H](O)CC[C@H]2CCCO)c(O)c1` [[^3H]-CP55940], the “specific binding of radioligand” value on GPR55 and at GPR55A [2] was “significant binding” each time.

For the molecule `Cc1c(C(=O)NN2CCCCC2)nn(-c2ccc(Cl)cc2Cl)c1-c1ccc(Cl)cc1` [[^3H]-SR141716], the “specific binding of radioligand” value on GPR55 and at GPR55A [2] was “significant binding” in each case. With `Cc1c(C(=O)c2cccc3ccccc23)c2cccc3c2n1C(CN1CCOCC1)CO3` (stereo not drawn) [[^3H]-WIN55-212], the “specific binding of radioligand” value at GPR55 and on GPR55A [2] was “little or no binding” throughout.

On to `CCCCCc1cc(O)c2c(c1)OC(C)(C)[C@@H]1CCC(C)=C[C@@H]21` [Δ9-THC, Δ9-tetrahydrocannbinol], for which the EC50 at GPR55A [1] (setting [4]) came to 8.9 ± 1.1 nM. Besides, at GPR55A [1], the “activation of GPR55A (GTPγS)” value is recorded as “concentration-dependent activation”.
